# Values of other authors, collected in patent US9161929B2, “Solvent cast film sustained release latanoprost implant” (ALLERGAN, INC., priority 2011, dated 2015).
compound,measurement,value
CC(C)OC(=O)CCC/C=C\C[C@@H]1[C@@H](CC[C@@H](O)CCc2ccccc2)[C@H](O)C[C@@H]1O [Latanoprost],"solubility in acetone, ethanol, ethyl acetate, isopropanol, methanol and octanol",freely soluble
